pEC50: −log10 of the molar value. In brackets after ≈: the same amount, converted by molar mass.
Tests used:
E. coli K12 PBP3 = target: T1, E. coli K12 PBP3 (Escherichia coli, UniProt P0AD68); assay: biochemical; format: binding
T1 construct: made in house
Method in brief: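 A. baumannii PBP2 (2.5 μM) and PBP3 (0.2 μM) were run in 25 mM Tris pH 8.0 buffer with Tween 20; E. coli PBP3 (1.5 μM) and N. gonorrhoeae PBP2 ([…]) in 50 mM Hepes pH 8.0 buffer.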

[1] = test system: P. aeruginosa (ΔmexAB-oprM); assay: Broth microdilution MIC in CAMHB; format: cell-based; settings: Pseudomonas aeruginosa, read-out: Minimum Inhibitory Concentration, P. aeruginosa ΔmexAB-OprM
Method in brief: (§1)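 Lowest compound concentration with no visible growth after 16-20 h at 37 °C defines MIC. Plates of 2-fold serial dilutions in cation-adjusted Mueller Hinton broth received 2-8×10^5 CFU/mL of exponentially grown cells, per CLSI methods; panel spans reference, hyper-permeable and efflux-pump-deleted strains.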

E. coli 901C = assay: Broth microdilution MIC in CAMHB; format: cell-based; settings: Escherichia coli; E. coli 901C (hyper-permeable); MHB; read-out: Minimum Inhibitory Concentration, E. coli 901C
Method in brief: as §1

A. baumannii ATCC 19606 = assay: Broth microdilution MIC in CAMHB; format: cell-based; settings: Acinetobacter baumannii, ATCC19606; MHB; read-out: Minimum Inhibitory Concentration, A. baumannii ATCC 19606
Method in brief: as §1

E. coli AG100 = assay: Broth microdilution MIC in CAMHB; format: cell-based; settings: Escherichia coli; E. coli AG100 (wild-type parent); MHB; read-out: Minimum Inhibitory Concentration, E. coli AG100
Method in brief: as §1

[2] = test system: K. pneumoniae UMM producing SHV-5 and KPC-2; assay: Broth microdilution MIC in CAMHB; format: cell-based; settings: Klebsiella pneumoniae, read-out: Minimum Inhibitory Concentration, K. pneumoniae UMM
Method in brief: as §1

[3] = test system: K. pneumoniae 848844 producing SHV-11 and KPC-2; assay: Broth microdilution MIC in CAMHB; format: cell-based; settings: Klebsiella pneumoniae, read-out: Minimum Inhibitory Concentration, K. pneumoniae 848844
Method in brief: as §1

E. coli ATCC 25922 = assay: Broth microdilution MIC in CAMHB; format: cell-based; settings: Escherichia coli, ATCC25922; E. coli ATCC 25922; MHB; read-out: Minimum Inhibitory Concentration, E. coli 25922
Method in brief: as §1

E. coli D22 = assay: Broth microdilution MIC in CAMHB; format: cell-based; settings: Escherichia coli; E. coli D22 (hyper-permeable); MHB; read-out: Minimum Inhibitory Concentration, E. coli D22
Method in brief: as §1

T1 sequence (P0AD68 1-577): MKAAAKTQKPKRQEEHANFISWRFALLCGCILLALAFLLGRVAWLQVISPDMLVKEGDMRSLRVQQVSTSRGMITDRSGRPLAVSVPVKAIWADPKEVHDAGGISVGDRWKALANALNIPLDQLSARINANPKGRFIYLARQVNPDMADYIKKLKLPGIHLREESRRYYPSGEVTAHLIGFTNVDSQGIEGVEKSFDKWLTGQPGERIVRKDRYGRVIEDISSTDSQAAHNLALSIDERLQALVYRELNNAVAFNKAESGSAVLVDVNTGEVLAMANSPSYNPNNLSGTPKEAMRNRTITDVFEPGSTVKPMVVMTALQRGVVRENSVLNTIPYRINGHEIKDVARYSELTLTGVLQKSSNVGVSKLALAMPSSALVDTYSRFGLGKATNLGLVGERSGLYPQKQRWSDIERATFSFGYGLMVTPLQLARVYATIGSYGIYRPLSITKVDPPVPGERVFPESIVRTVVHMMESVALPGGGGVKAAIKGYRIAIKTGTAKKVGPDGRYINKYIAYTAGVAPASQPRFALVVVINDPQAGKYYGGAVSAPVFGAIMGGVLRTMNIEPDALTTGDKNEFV

Row | SMILES | pEC50 (E. coli K12 PBP3) | MIC [1] | MIC (E. coli 901C) | MIC (A. baumannii ATCC 19606) | MIC (E. coli AG100) | MIC [2] | MIC [3] | MIC (E. coli ATCC 25922) | MIC (E. coli D22)
1 | CCN1CCN(C(=O)NC(C(=O)N[C@H]2Cc3cccc(C(=O)O)c3OB2O)c2ccc(C(=O)O)c(F)c2)C(=O)C1=O (stereo partly drawn) [Example 31, (3R)-3-(2-(4-carboxy-3-fluorophenyl)-2-(4-ethyl-2,3-dioxopiperazine-1-carboxamido)acetamido)-2-hydroxy-3,4-dihydro-2H-benzo[e][1,2]oxaborinine-8-carboxylic acid] | > 4.52 | 8 to 16 mg/L (≈ 14 to 28.1 µM) | < 0.25 mg/L | > 128 mg/L | 32 to 64 mg/L (≈ 56.1 to 112 µM) | 32 to 64 mg/L (≈ 56.1 to 112 µM) | > 128 mg/L | 32 to 64 mg/L (≈ 56.1 to 112 µM) | 2 to 4 mg/L (≈ 3.51 to 7.01 µM)
2 | CCN1CCN(C(=O)NC(C(=O)N[C@H]2Cc3cccc(C(=O)O)c3OB2O)c2ccc(O)cc2O)C(=O)C1=O (stereo partly drawn) [Example 69, (3R)-3-(2-(2,4-dihydroxyphenyl)-2-(4-ethyl-2,3-dioxopiperazine-1-carboxamido)acetamido)-2-hydroxy-3,4-dihydro-2H-benzo[e][1,2]oxaborinine-8-carboxylic acid] | > 4.52 | 32 to 64 mg/L (≈ 59.2 to 118 µM) | < 0.25 mg/L | > 128 mg/L | 32 to 64 mg/L (≈ 59.2 to 118 µM) | 32 to 64 mg/L (≈ 59.2 to 118 µM) | 32 to 64 mg/L (≈ 59.2 to 118 µM) | 32 to 64 mg/L (≈ 59.2 to 118 µM) | 2 to 4 mg/L (≈ 3.7 to 7.4 µM)
3 | CCN1CCN(C(=O)NC(C(=O)N[C@H]2Cc3cccc(C(=O)O)c3OB2O)c2c(F)cc(O)cc2Cl)C(=O)C1=O (stereo partly drawn) [Example 95, (3R)-3-(2-(2-chloro-6-fluoro-4-hydroxyphenyl)-2-(4-ethyl-2,3-dioxopiperazine-1-carboxamido)acetamido)-2-hydroxy-3,4-dihydro-2H-benzo[e][1,2]oxaborinine-8-carboxylic acid] | > 4.52 | 32 to 64 mg/L (≈ 55.5 to 111 µM) | < 0.25 mg/L | > 128 mg/L | 8 to 16 mg/L (≈ 13.9 to 27.7 µM) | 8 to 16 mg/L (≈ 13.9 to 27.7 µM) | 32 to 64 mg/L (≈ 55.5 to 111 µM) | 8 to 16 mg/L (≈ 13.9 to 27.7 µM) | 0.5 to 1 mg/L (≈ 0.867 to 1.73 µM)
4 | CCN1CCN(C(=O)NC(C(=O)N[C@H]2Cc3ccc(C=O)c(C(=O)O)c3OB2O)c2csc(N)n2)C(=O)C1=O (stereo partly drawn) [Example 57, (3R)-3-(2-(2-aminothiazol-4-yl)-2-(4-ethyl-2,3-dioxopiperazine-1-carboxamido)acetamido)-7-formyl-2-hydroxy-3,4-dihydro-2H-benzo[e][1,2]oxaborinine-8-carboxylic acid] | 3.30 to 4.52 | 32 to 64 mg/L (≈ 57.3 to 115 µM) | 2 to 4 mg/L (≈ 3.58 to 7.16 µM) | > 128 mg/L | > 128 mg/L | 32 to 64 mg/L (≈ 57.3 to 115 µM) | 32 to 64 mg/L (≈ 57.3 to 115 µM) | 32 to 64 mg/L (≈ 57.3 to 115 µM) | 8 to 16 mg/L (≈ 14.3 to 28.7 µM)
5 | NCCN1CCN(C(=O)NC(C(=O)N[C@H]2Cc3ccc(F)c(C(=O)O)c3OB2O)c2nc(N)sc2F)C(=O)C1=O (stereo partly drawn) [Example 24, (3R)-3-(2-(2-amino-5-fluorothiazol-4-yl)-2-(4-(2-aminoethyl)-2,3-dioxopiperazine-1-carboxamido)acetamido)-7-fluoro-2-hydroxy-3,4-dihydro-2H-benzo[e][1,2]oxaborinine-8-carboxylic acid] | 3.30 to 4.52 | 32 to 64 mg/L (≈ 55 to 110 µM) | 2 to 4 mg/L (≈ 3.44 to 6.88 µM) | > 128 mg/L | 32 to 64 mg/L (≈ 55 to 110 µM) | 32 to 64 mg/L (≈ 55 to 110 µM) | > 128 mg/L | 32 to 64 mg/L (≈ 55 to 110 µM) | 8 to 16 mg/L (≈ 13.8 to 27.5 µM)
6 | CCN1CCN(C(=O)NC(C(=O)N[C@H]2Cc3cccc(C(=O)O)c3OB2O)c2cccc(NS(N)(=O)=O)c2)C(=O)C1=O (stereo partly drawn) [Example 98, (3R)-3-(2-(4-ethyl-2,3-dioxopiperazine-1-carboxamido)-2-(3-(sulfamoylamino)phenyl)acetamido)-2-hydroxy-3,4-dihydro-2H-benzo[e][1,2]oxaborinine-8-carboxylic acid] | > 4.52 | 8 to 16 mg/L (≈ 13.3 to 26.6 µM) | < 0.25 mg/L | > 128 mg/L | 8 to 16 mg/L (≈ 13.3 to 26.6 µM) | 32 to 64 mg/L (≈ 53.1 to 106 µM) | > 128 mg/L | 8 to 16 mg/L (≈ 13.3 to 26.6 µM) | 0.5 to 1 mg/L (≈ 0.83 to 1.66 µM)
7 | CCN1CCN(C(=O)NC(C(=O)N[C@H]2Cc3cccc(C(=O)O)c3OB2O)c2cccc(S(N)(=O)=O)c2)C(=O)C1=O (stereo partly drawn) [Example 99, (3R)-3-(2-(4-ethyl-2,3-dioxopiperazine-1-carboxamido)-2-(3-sulfamoylphenyl)acetamido)-2-hydroxy-3,4-dihydro-2H-benzo[e][1,2]oxaborinine-8-carboxylic acid] | 3.30 to 4.52 | 8 to 16 mg/L (≈ 13.6 to 27.2 µM) | < 0.25 mg/L | > 128 mg/L | 32 to 64 mg/L (≈ 54.5 to 109 µM) | 32 to 64 mg/L (≈ 54.5 to 109 µM) | 32 to 64 mg/L (≈ 54.5 to 109 µM) | 32 to 64 mg/L (≈ 54.5 to 109 µM) | 2 to 4 mg/L (≈ 3.4 to 6.81 µM)
8 | CCN1CCN(C(=O)NC(C(=O)N[C@H]2Cc3cccc(C(=O)O)c3OB2O)c2cccc(NS(C)(=O)=O)c2)C(=O)C1=O (stereo partly drawn) [Example 76, (3R)-3-(2-(4-ethyl-2,3-dioxopiperazine-1-carboxamido)-2-(3-(methylsulfonamido)phenyl)acetamido)-2-hydroxy-3,4-dihydro-2H-benzo[e][1,2]oxaborinine-8-carboxylic acid] | > 4.52 | 8 to 16 mg/L (≈ 13.3 to 26.6 µM) | < 0.25 mg/L | > 128 mg/L | 8 to 16 mg/L (≈ 13.3 to 26.6 µM) | 32 to 64 mg/L (≈ 53.2 to 106 µM) | > 128 mg/L | 32 to 64 mg/L (≈ 53.2 to 106 µM) | 2 to 4 mg/L (≈ 3.33 to 6.65 µM)
9 | CCN1CCN(C(=O)NC(C(=O)N[C@H]2Cc3cccc(C(=O)O)c3OB2O)c2ccc(C(N)=O)c(O)c2)C(=O)C1=O (stereo partly drawn) [Example 45, (3R)-3-(2-(4-carbamoyl-3-hydroxyphenyl)-2-(4-ethyl-2,3-dioxopiperazine-1-carboxamido)acetamido)-2-hydroxy-3,4-dihydro-2H-benzo[e][1,2]oxaborinine-8-carboxylic acid] | > 4.52 | 2 to 4 mg/L (≈ 3.53 to 7.05 µM) | 2 to 4 mg/L (≈ 3.53 to 7.05 µM) | > 128 mg/L | 32 to 64 mg/L (≈ 56.4 to 113 µM) | 32 to 64 mg/L (≈ 56.4 to 113 µM) | > 128 mg/L | 32 to 64 mg/L (≈ 56.4 to 113 µM) | < 0.25 mg/L
10 | CCN1CCN(C(=O)N[C@H](C(=O)N[C@H]2Cc3cccc(C(=O)O)c3OB2O)c2cc(O)cc(O)c2)C(=O)C1=O (single isomer, unassigned) [Example 81] | < 3.30 | 32 to 64 mg/L (≈ 59.2 to 118 µM) | 0.5 to 1 mg/L (≈ 0.925 to 1.85 µM) | > 128 mg/L | 32 to 64 mg/L (≈ 59.2 to 118 µM) | > 128 mg/L | > 128 mg/L | 32 to 64 mg/L (≈ 59.2 to 118 µM) | 8 to 16 mg/L (≈ 14.8 to 29.6 µM)
11 | CCN1CCN(C(=O)NC(C(=O)N[C@H]2Cc3cccc(C(=O)O)c3OB2O)c2ccc(O)c(N(S(C)(=O)=O)S(C)(=O)=O)c2)C(=O)C1=O (stereo partly drawn) [Example 21, (3R)-3-(2-(4-ethyl-2,3-dioxopiperazine-1-carboxamido)-2-(4-hydroxy-3-(N-(methylsulfonyl)methylsulfonamido)phenyl)acetamido)-2-hydroxy-3,4-dihydro-2H-benzo[e][1,2]oxaborinine-8-carboxylic acid] | > 4.52 | 32 to 64 mg/L (≈ 46 to 92 µM) | < 0.25 mg/L | > 128 mg/L | 32 to 64 mg/L (≈ 46 to 92 µM) | 32 to 64 mg/L (≈ 46 to 92 µM) | > 128 mg/L | > 128 mg/L | 2 to 4 mg/L (≈ 2.88 to 5.75 µM)
12 | CCN1CCN(C(=O)NC(C(=O)N[C@H]2Cc3cccc(C(=O)O)c3OB2O)c2ccc(N)c(F)c2)C(=O)C1=O (stereo partly drawn) [Example 50, (3R)-3-(2-(4-amino-3-fluorophenyl)-2-(4-ethyl-2,3-dioxopiperazine-1-carboxamido)acetamido)-2-hydroxy-3,4-dihydro-2H-benzo[e][1,2]oxaborinine-8-carboxylic acid] | > 4.52 | 2 to 4 mg/L (≈ 3.69 to 7.39 µM) | < 0.25 mg/L | > 128 mg/L | 32 to 64 mg/L (≈ 59.1 to 118 µM) | 32 to 64 mg/L (≈ 59.1 to 118 µM) | > 128 mg/L | 32 to 64 mg/L (≈ 59.1 to 118 µM) | 2 to 4 mg/L (≈ 3.69 to 7.39 µM)
13 | CCN1CCN(C(=O)N[C@H](C(=O)N[C@H]2Cc3cccc(C(=O)O)c3OB2O)c2nc(Cl)c(C(=O)O)cc2F)C(=O)C1=O [Example 19, 6-((S)-2-(((R)-8-carboxy-2-hydroxy-3,4-dihydro-2H-benzo[e][1,2]oxaborinin-3-yl)amino)-1-(4-ethyl-2,3-dioxopiperazine-1-carboxamido)-2-oxoethyl)-2-chloro-5-fluoronicotinic acid] | > 4.52 | 32 to 64 mg/L (≈ 52.8 to 106 µM) | 0.5 to 1 mg/L (≈ 0.825 to 1.65 µM) | > 128 mg/L | > 128 mg/L | > 128 mg/L | > 128 mg/L | > 128 mg/L | 2 to 4 mg/L (≈ 3.3 to 6.6 µM)
14 | NCCCN1CCN(C(=O)NC(C(=O)N[C@H]2Cc3cccc(C(=O)O)c3OB2O)c2ccc(C(=O)O)cc2)C(=O)C1=O (stereo partly drawn) [Example 39, (3R)-3-(2-(4-(3-aminopropyl)-2,3-dioxopiperazine-1-carboxamido)-2-(4-carboxyphenyl)acetamido)-2-hydroxy-3,4-dihydro-2H-benzo[e][1,2]oxaborinine-8-carboxylic acid] | > 4.52 | 8 to 16 mg/L (≈ 13.8 to 27.5 µM) | 0.5 to 1 mg/L (≈ 0.86 to 1.72 µM) | > 128 mg/L | 8 to 16 mg/L (≈ 13.8 to 27.5 µM) | 32 to 64 mg/L (≈ 55 to 110 µM) | > 128 mg/L | 8 to 16 mg/L (≈ 13.8 to 27.5 µM) | 2 to 4 mg/L (≈ 3.44 to 6.88 µM)

— US20230114728A1 (Venatorx Pharmaceuticals, Inc., priority 2019, published 2023)
